Assay results taken from PubChem BioAssay AID248 (DTP/NCI, 2004).
Inconclusive results and toxic doses are left out. No stated cut-off is given here; in the data, active means T/C of 150% or more; inactive means T/C below 125%.

Test system: L1210 leukemia ip in BDF1 mice, survival T/C
Experiment: NCI In Vivo Anticancer Drug Screen. Data for tumor model L1210 Leukemia (intraperitoneal) in B6D2F1 (BDF1) mice
Conditions: endpoint: mean survival time, higher = longer survival
Method in brief: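 Transplantable tumor model; survival measured in treated vs vehicle control mice. Value = treated/control.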

[1] = dose: 100.0 mg/kg/injection, schedule: Q04DX003 (ip), vehicle: saline with Tween-80
[2] = dose: 200.0 mg/kg/injection, schedule: Q04DX003 (ip), vehicle: saline with Tween-80
[3] = dose: 400.0 mg/kg/injection, schedule: Q04DX003 (ip), vehicle: saline with Tween-80
[4] = dose: 100.0 mg/kg/injection, schedule: Q01DX009 (ip), vehicle: Klucel (hydroxypropylcellulose) (HPC)
[5] = dose: 200.0 mg/kg/injection, schedule: Q01DX009 (ip), vehicle: Klucel (hydroxypropylcellulose) (HPC)
[6] = dose: 400.0 mg/kg/injection, schedule: Q01DX009 (ip), vehicle: Klucel (hydroxypropylcellulose) (HPC)

Measured: T/C

CCCCCCCC/C=C\CCCCCCCCOCC(O)CO (configuration not stated)
inactive: dose: 50.0 mg/kg/injection, schedule: Q01DX009 (ip), vehicle: acetone 87 % of control | dose: 100.0 mg/kg/injection, schedule: Q01DX001 (ip), vehicle: saline 87 % of control | dose: 100.0 mg/kg/injection, schedule: Q01DX009 (ip), vehicle: acetone 93 % of control | dose: 100.0 mg/kg/injection, schedule: Q04DX003 (ip), vehicle: acetone 100 % of control | dose: 200.0 mg/kg/injection, schedule: Q01DX001 (ip), vehicle: saline 91 % of control | dose: 200.0 mg/kg/injection, schedule: Q04DX003 (ip), vehicle: acetone 103 % of control | dose: 400.0 mg/kg/injection, schedule: Q01DX001 (ip), vehicle: saline 86 % of control

O=C1c2ccccc2C(=O)c2c(Sc3ccccc3)cccc21
inactive: [1] 96 % of control | [2] 98 % of control | [3] 95 % of control

COc1ccc(C(=O)c2cnc(C)n2Cc2ccccc2)cc1
inactive: [4] 106 % of control | [5] 106 % of control | [6] 114 % of control

CCOC(=O)C[n+]1cccc(Br)c1
inactive: dose: 100.0 mg/kg/injection, schedule: Q01DX001 (ip), vehicle: carboxymethylcellulose (CMC) 91 % of control | dose: 200.0 mg/kg/injection, schedule: Q01DX001 (ip), vehicle: carboxymethylcellulose (CMC) 104 % of control | dose: 400.0 mg/kg/injection, schedule: Q01DX001 (ip), vehicle: carboxymethylcellulose (CMC) 104 % of control

CCOC(=O)C(Br)(C(=O)OCC)C(=O)c1cc(-c2ccc(Cl)c(Cl)c2)nc2c(Cl)cc(Cl)cc12
inactive: dose: 100.0 mg/kg/injection, schedule: Q01DX001 (ip), vehicle: Klucel (hydroxypropylcellulose) (HPC) 103 % of control | [4] 95 % of control | dose: 200.0 mg/kg/injection, schedule: Q01DX001 (ip), vehicle: Klucel (hydroxypropylcellulose) (HPC) 111 % of control | [5] 96 % of control | dose: 400.0 mg/kg/injection, schedule: Q01DX001 (ip), vehicle: Klucel (hydroxypropylcellulose) (HPC) 105 % of control | [6] 95 % of control

CCCCCCCCCCCCCCCC(=O)OCCCCCCCCCCCCC
inactive: [1] 95 % of control | [2] 90 % of control | [3] 86 % of control

O=C(CI)NCc1ccccc1
inactive: dose: 75.0 mg/kg/injection, schedule: Q01DX001 (ip), vehicle: saline 96 % of control

O=[N+]([O-])c1cccc(-c2nn[nH]n2)c1
inactive: dose: 100.0 mg/kg/injection, schedule: Q04DX003 (ip), vehicle: saline 94 % of control | dose: 200.0 mg/kg/injection, schedule: Q04DX003 (ip), vehicle: saline 94 % of control | dose: 400.0 mg/kg/injection, schedule: Q04DX003 (ip), vehicle: saline 96 % of control

COC(=O)C1(C)CCCC2(C)c3cc(O)c(C(C)C)cc3CCC12 (configuration not stated)
inactive: dose: 100.0 mg/kg/injection, schedule: Q01DX001 (ip), vehicle: acetone 88 % of control | dose: 200.0 mg/kg/injection, schedule: Q01DX001 (ip), vehicle: acetone 90 % of control | dose: 400.0 mg/kg/injection, schedule: Q01DX001 (ip), vehicle: acetone 93 % of control
